Measurements from patent US20250354049A1, “CORROSION-INHIBITING AGENTS FOR REDUCING DISSOLVED OXYGEN CONCENTRATIONS WITHIN UPSTREAM OILFIELD SYSTEMS” (Finoric LLC, priority 2024, published 2025).
In brackets after ≈: the same amount, converted by molar mass. Entries after “also recorded” stand apart in the source; their conditions may differ. Where two headings read alike, the source gives them in different places.

Assays:
[1] = cited from earlier work
[2] = cited from earlier work; remark: listed apart in the source
[3] = solvents named; cited from earlier work
[4] = Example 6: oxygen scavenging in deionized water with and without P110 steel coupon
Method: For a first test, no steel coupon was present but for a second test, a P110 steel coupon was suspended in the water. The dissolved oxygen was measured as a function of time at room temperature (˜ 70° F.) for both tests. FIG. 10 provides a picture 1000 of the second test in which the steel coupon was submerged in the deionized water within the glass vessel.
At the 180 min mark, the temperature was increased from 70° F. to 100° F. in both tests.

[5] = Example 1: oxygen scavenging in deionized water, impact of temperature and activator; details: for dissolved oxygen scavenged: absence of catalyst, after 6 h, pH ~6.4, deionized water; for dissolved oxygen scavenged / time until all detectable dissolved oxygen was scavenged: 200 ppm; for time until all detectable dissolved oxygen was scavenged: with activator CuSO4·5H2O 10 ppm, pH ~6.4
Method: To prepare the experiment, 500 mL of deionized water (saturated with dissolved oxygen) was placed in a 3-neck round bottom flask, and a calibrated dissolved oxygen probe was inserted into the center neck. FIG. 5 provides picture 500 of the experiment setup. The water was stirred magnetically, and the pH and temperature were adjusted to the indicated values. Temperature was controlled by heating in a water bath, and pH was adjusted to ˜6.4 with dilute hydrogen chloride (HCl). […] The corrosion-inhibiting agent and activator (if used) were injected via micropipette through one of the side necks in the flask. […] The flask was then sealed and dissolved oxygen was monitored continuously as a function of time.

[6] = second test, P110 steel coupon present, 200 ppm, ~70° F.

For `N.O=S(O)O` [Ammonium bisulfite], the “~pKa” value [1] is listed as 7.

In the case of `O=S([O-])O.[Na+]` [Sodium Bisulfite], the “~pKa” value [1] is listed as roughly 7 and the “~pKa” value ([1]; listed as sodium bisulfite) is listed as roughly 7.

In the case of `O=S([O-])([O-])=S.[Na+].[Na+]` [Sodium Thiosulfate], the “~pKa” value [1] is listed as 1.74.

In the case of `NNC(=O)NN` [Carbohydrazide], the “~pKa” value [1] is given as 11.81, the “Solubility in Water (in words)” value [2] is given as “Very” and the “Solubility in Other Solvents” value [3] is given as “ethanol”.

In the case of `O=S([O-])[O-].[Na+].[Na+]` [Sodium Sulfite], the “~pKa” value [1] is given as roughly 9 and the “~pKa” value ([1]; listed as sodium sulfite) is given as roughly 9.

In the case of `CCC(C)=NO` [Methylethylketoxime (MEKO), Methylethylketoxime], the “Solubility in Water (in words)” value [2] is given as “Miscible” and the “Solubility in Other Solvents” value [3] is given as “Ethanol”.

For `CCN(O)CC` [Diethylhydroxylamine (DEHA), diethylhydroxylamine], the “~pKa” value [1] is listed as 5.7 and the “Solubility in Water (in words)” value [2] is listed as “Miscible”.

In the case of `O=C1O[C@H]([C@@H](O)CO)C(O)=C1O` [Ascorbic Acid], the “dissolved oxygen left behind” value ([4]; after temperature increased from 70° F. to 100° F. at the 180 min mark) is reported as roughly 0.37 ppm, the “dissolved oxygen after bolus of copper catalyst” value ([4]; copper catalyst (10 ppm) injected at the 235 min mark, 100° F.) is reported as “non-detectable levels” and the “dissolved oxygen concentration after 4 h” value ([4]; first test without coupon, 200 ppm, dropped from 9.05 ppm, room temperature (~70° F.)) is reported as 5.23 ppm. The “reaction with dissolved oxygen (in words)” value ([4]; first test without coupon, 200 ppm, ~70° F.) was “only a slow reaction was observed”, the “rate of reaction with dissolved oxygen (in words)” value [4, 6] was “increased significantly” and the “time after which the scavenging reaction stalled” value [4, 6] was 180 min. The “reaction with dissolved oxygen (in words)” value ([5]; absence of activator, FIG. 6 solid lines) was “relatively sluggish”, the dissolved oxygen scavenged ([5]; 100° F.) was “approximately 35%” and the dissolved oxygen scavenged ([5]; 135° F.) was roughly 93%. The “reaction rate with dissolved oxygen (in words)” value ([5]; copper catalyst (CuSO4·5H2O) added, FIG. 6 dashed lines) was “significant increase in reaction rate”, the “time until all detectable dissolved oxygen was scavenged” value ([5]; 100° F.) was no more than 2 min and the “time until all detectable dissolved oxygen was scavenged” value ([5]; ambient temperature (72° F.)) was no more than 15 min.

For `NN` [Hydrazine], the “~pKa” value [1] is listed as 8-9, the “Solubility in Water (in words)” value [2] is listed as “Miscible” and the “Solubility in Other Solvents” value [3] is listed as “Ethanol,; also recorded: methanol”.

For `O=S([O-])S(=O)(=O)[O-].[Na+].[Na+]` [Sodium Metabisulfite, reference compound], the “~pKa” value [1] is listed as roughly 1.8, the “Solubility in Water” value [2] is listed as 653 mg/mL and the “Solubility in Other Solvents” value [3] is listed as “Glycerol,; also recorded: ethanol”.

For `Oc1ccc(O)cc1` [Hydroquinone (HQ), Hydroquinone], the “~pKa” value [1] is given as 9.9, the “Solubility in Water” value [2] is given as 59 mg/mL (≈ 536 mM) and the “Solubility in Other Solvents” value [3] is given as “Ethanol,; also recorded: acetone”.
